The source made the active and inactive calls. The calls are words filed in the database; no cut-off is given here.
Legend:
MDA-MB-436 = experiment: Antitumor activity against BRCA 1-deficient human MDA-MB-436 cells incubated for 72 hrs by MTT assay; assay type: functional, cell-based; conditions: MDA-MB-436, 72 h
[1] = Cytotoxicity against human MCF-10A cells incubated for 72 hrs by MTT assay; assay type: toxicity, cell-based
HCC1937 = experiment: Antitumor activity against BRCA 1-deficient human HCC1937 cells incubated for 72 hrs by MTT assay; assay type: functional, cell-based; conditions: HCC1937, 72 h
MDA-MB-468 = experiment: Antitumor activity against human MDA-MB-468 cells harboring wild-type BRCA incubated for 72 hrs by MTT assay; assay type: functional, cell-based; conditions: MDA-MB-468, 72 h
MDA-MB-231 [2] = experiment: Antitumor activity against human MDA-MB-231 cells harboring wild-type BRCA incubated for 72 hrs by MTT assay; assay type: functional, cell-based; conditions: MDA-MB-231, 72 h
[3] = target: Poly [ADP-ribose] polymerase 1 (Homo sapiens, UniProt P09874); experiment: Inhibition of PARP1 (unknown origin) using histone as substrate incubated for 60 mins by ELISA
Sequence of Poly [ADP-ribose] polymerase 1 (P09874 whole entry): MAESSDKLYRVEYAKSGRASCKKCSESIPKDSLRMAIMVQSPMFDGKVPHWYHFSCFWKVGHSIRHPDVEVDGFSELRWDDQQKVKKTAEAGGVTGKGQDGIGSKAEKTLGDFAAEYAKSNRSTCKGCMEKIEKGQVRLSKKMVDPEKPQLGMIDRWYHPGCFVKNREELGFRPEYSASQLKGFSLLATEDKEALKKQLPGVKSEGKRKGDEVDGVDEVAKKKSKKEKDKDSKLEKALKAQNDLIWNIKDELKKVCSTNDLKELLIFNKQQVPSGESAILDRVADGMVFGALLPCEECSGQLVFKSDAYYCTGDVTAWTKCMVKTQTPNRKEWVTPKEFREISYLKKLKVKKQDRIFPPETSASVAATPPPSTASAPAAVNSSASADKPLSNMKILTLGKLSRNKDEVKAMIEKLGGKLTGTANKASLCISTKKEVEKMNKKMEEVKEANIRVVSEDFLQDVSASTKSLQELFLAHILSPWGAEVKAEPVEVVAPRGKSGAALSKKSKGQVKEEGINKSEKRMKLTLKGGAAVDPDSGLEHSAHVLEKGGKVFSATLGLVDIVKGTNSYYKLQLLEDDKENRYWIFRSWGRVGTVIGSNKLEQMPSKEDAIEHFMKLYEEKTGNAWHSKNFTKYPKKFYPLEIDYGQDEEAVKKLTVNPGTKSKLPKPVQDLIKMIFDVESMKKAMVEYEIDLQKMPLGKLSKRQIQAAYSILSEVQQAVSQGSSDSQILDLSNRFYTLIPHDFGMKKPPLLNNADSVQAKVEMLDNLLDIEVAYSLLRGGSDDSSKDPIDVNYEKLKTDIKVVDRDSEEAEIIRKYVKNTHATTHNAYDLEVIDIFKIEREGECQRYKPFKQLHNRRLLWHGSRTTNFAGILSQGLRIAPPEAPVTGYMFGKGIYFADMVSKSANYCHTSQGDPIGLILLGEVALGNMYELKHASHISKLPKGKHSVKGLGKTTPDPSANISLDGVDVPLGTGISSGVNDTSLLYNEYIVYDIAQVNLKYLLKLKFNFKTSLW

MDA-MB-231 [4] = experiment: Induction of DNA damage in human MDA-MB-231 cells assessed as increase in olive tail moments at 5 uM incubated for 24 hrs by Comet assay; assay type: functional, cell-based
MDA-MB-231 [5] = experiment: […] activity in human MDA-MB-231 cells at 1 uM incubated for 24 hrs by wound healing assay; assay type: functional, cell-based
MDA-MB-231 [6] = experiment: Induction of apoptosis in human MDA-MB-231 cells at 5 uM incubated for 24 hrs by Annexin V-FITC/PI staining based flow cytometry relative to control; assay type: functional
MDA-MB-231 [7] = experiment: Effect on ERK1/2 phosphorylation in human MDA-MB-231 cells at 5 uM incubated for 24 hrs by Western blot analysis; assay type: functional, cell-based
MDA-MB-231 [8] = experiment: Induction of apoptosis in human MDA-MB-231 cells assessed as decrease in Bcl-2 level at 5 uM incubated for 24 hrs by Western blot analysis; assay type: functional, cell-based
MDA-MB-231 [9] = experiment: Induction of DNA damage in human MDA-MB-231 cells assessed as increase in gamma-H2AX level at 5 uM incubated for 24 hrs by immunofluorescence based analysis; assay type: functional, cell-based
MDA-MB-231 [10] = experiment: Effect on MEK phosphorylation in human MDA-MB-231 cells at 5 uM incubated for 24 hrs by Western blot analysis; assay type: functional, cell-based
MDA-MB-231 [11] = experiment: Induction of apoptosis in human MDA-MB-231 cells as increase in red fluorescence at 5 uM incubated for 24 hrs by Calcein AM/PI staining based confocal microscopy; assay type: functional, cell-based
MDA-MB-231 [12] = experiment: Induction of apoptosis in human MDA-MB-231 cells assessed as increase in Bax level at 5 uM incubated for 24 hrs by Western blot analysis; assay type: functional, cell-based
MDA-MB-231 [13] = experiment: Anti-migration activity in human MDA-MB-231 cells assessed as wound closure area at 1 uM incubated for 24 hrs by wound healing assay (reference value: 75.6 %); assay type: functional
[14] = Induction of depolarization of mitochondrial membrane potential in human MDA-MB-231 cells at 5 uM incubated for 24 hrs by JC-1 staining based flow cytometry relative to control; assay type: functional
MDA-MB-231 [15] = experiment: Effect on RAF expression in human MDA-MB-231 cells at 5 uM incubated for 24 hrs by Western blot analysis; assay type: functional, cell-based
MDA-MB-231 [16] = experiment: Induction of ROS generation in human MDA-MB-231 cells at 5 uM incubated for 24 hrs by DCFH-DA staining based flow cytometric analysis; assay type: functional, cell-based
MDA-MB-231 [17] = experiment: Effect on CRAF expression in human MDA-MB-231 cells at 5 uM incubated for 24 hrs by Western blot analysis; assay type: functional, cell-based

| SMILES | IC50 (MDA-MB-436) [µM] | IC50 at 72 h [1] [µM] | IC50 (HCC1937) [µM] | IC50 (MDA-MB-468) [µM] | IC50 (MDA-MB-231 [2]) [µM] | IC50 [3] [µM] | Activity (MDA-MB-231 [4]) | Activity (MDA-MB-231 [5]) | Activity (MDA-MB-231 [6]) [%] | Activity (MDA-MB-231 [7]) | Activity (MDA-MB-231 [8]) | Activity (MDA-MB-231 [9]) | Activity (MDA-MB-231 [10]) | Activity (MDA-MB-231 [11]) | Activity (MDA-MB-231 [12]) | Activity (MDA-MB-231 [13]) [%] | Activity [14] [%] | Activity (MDA-MB-231 [15]) | Activity (MDA-MB-231 [16]) | Activity (MDA-MB-231 [17]) |
| --- | --- | --- | --- | --- | --- | --- | --- | --- | --- | --- | --- | --- | --- | --- | --- | --- | --- | --- | --- | --- |
| COc1cc(OC)c(/C=C/S(=O)(=O)Cc2ccc(OC)c(NCCCCCC(=O)N3CCN(C(=O)c4cc(Cc5n[nH]c(=O)c6ccccc56)ccc4F)CC3)c2)c(OC)c1 | 2.18 | > 40 | 3.12 | 4.57 | 2.68 | – | – | – | – | – | – | – | – | – | – | – | – | – | – | – |
| COc1cc(OC)c(/C=C/S(=O)(=O)Cc2ccc(OC)c(NC(=O)CCC(=O)N3CCN(C(=O)c4cc(Cc5n[nH]c(=O)c6ccccc56)ccc4F)CC3)c2)c(OC)c1 | 1.55 | > 40 | 1.27 | 2.94 | 1.19 | – | – | – | – | – | – | – | – | – | – | – | – | – | – | – |
| COc1cc(OC)c(/C=C/S(=O)(=O)Cc2ccc(OC)c(NC(=O)CCCC(=O)N3CCN(C(=O)c4cc(Cc5n[nH]c(=O)c6ccccc56)ccc4F)CC3)c2)c(OC)c1 | 1.93 | > 40 | 2.01 | 3.64 | 2.76 | – | – | – | – | – | – | – | – | – | – | – | – | – | – | – |
| O=C(c1cc(Cc2n[nH]c(=O)c3ccccc23)ccc1F)N1CCNCC1 | 2.61 | > 40 | 3.21 | 12.3 | 21 | 0.0395 | inactive | inactive | 21.14 | inactive | Active | inactive | inactive | inactive | Active | 66.1 | 23.88 | inactive | inactive | inactive |
| COc1cc(OC)c(/C=C/S(=O)(=O)Cc2ccc(OC)c(NCC(=O)N3CCN(C(=O)c4cc(Cc5n[nH]c(=O)c6ccccc56)ccc4F)CC3)c2)c(OC)c1 | 1.44 | > 40 | 1.99 | 1.37 | 1.28 | – | – | – | – | – | – | – | – | – | – | – | – | – | – | – |
| COc1cc(OC)c(/C=C/S(=O)(=O)Cc2ccc(OC)c(NC(=O)CCCCC(=O)O)c2)c(OC)c1 | 7.14 | > 40 | 5.29 | 6.99 | 6.94 | – | – | – | – | – | – | – | – | – | – | – | – | – | – | – |
| COc1cc(OC)c(/C=C/S(=O)(=O)Cc2ccc(OC)c(NCCCCCC(=O)O)c2)c(OC)c1 | 3.27 | > 40 | 4.76 | 5.37 | 2.29 | – | – | – | – | – | – | – | – | – | – | – | – | – | – | – |

Reference: ChEMBL document CHEMBL6127102 (Bioorg Med Chem, 2024)
